Molecules are shown by their SMILES. Structures can show the parent of a compound that is named as a salt. Where two headings read alike, the source gives them in different places.

Drawing on PMC7377239, “Cardiovascular Effects of Polychlorinated Biphenyls and Their Major Metabolites” (Environmental Health Perspectives, 2020), this text covers activity and minimal effective concentration for 5 molecules.

For test [1], the system named is iCell endothelial cells (human iPSC-derived ECs). As to the kind of experiment: Tube formation (tubulogenesis) assay in iCell endothelial cells, 18 h. Type of test: cell-based. The note with it: Homo sapiens, Endothelial cell; for activity at 0.1 µM: 0.10 µM. The gist of the method: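 Tube formation was measured by calcein AM imaging after overnight compound exposure (37°C, 0.5% DMSO vehicle) of human iPSC-derived ECs, 7,500/well, on reduced-growth-factor Geltrex in starvation medium. Vehicle-normalized data fitted to four-parameter logistic; POD set at one vehicle SD; without response, 100 μM taken as NOAEL.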

The next test concerns HUVECs. The experiment in a line: Tube formation (tubulogenesis) assay in HUVECs, 18 h. Format: cell-based, human. The note with it: Homo sapiens, HUVEC, 18 h; for activity at 0.01 µM: concentration 0.01 µM; for activity at 0.1 µM: concentration 0.10 µM; for activity at 1 µM: concentration 1.00 µM; for activity at 10 µM: concentration 10.00 µM; for activity at 100 µM: concentration 100.00 µM. The essentials: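 HUVECs (passage 1–5) seeded on reduced-growth-factor basement membrane and exposed to compounds overnight at 37°C, 5% CO2, in 2× maintenance medium with 12.5 ng/mL VEGF; 0.5% DMSO vehicle. Calcein AM-stained tube networks imaged and analysed; vehicle-normalized readouts fit to four-parameter logistic, POD set at one SD of vehicle means.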

The mark [2] stands for this setting: iPSC-EC, 0.00 µM = 100.00, read-out: endo.mtl.18hr.
Where [3] appears, read: iPSC-EC, 0.00 µM = 100.00, read-out: endo.tlps.18hr.
Where [4] appears, read: iPSC-EC, 0.00 µM = 100.00, read-out: endo.tta.18hr.
The mark [5] stands for this setting: iPSC-EC, 0.00 µM = 100.00, read-out: endo.ttl.18hr.
Where [6] appears, read: HUVECs tube formation, 0.00 µM = 100.00, read-out: huvec.mtl.18hr.
The mark [7] stands for this setting: HUVECs tube formation, 0.00 µM = 100.00, read-out: huvec.tlps.18hr.
Where [8] appears, read: HUVECs tube formation, 0.00 µM = 100.00, read-out: huvec.tta.18hr.
[9] abbreviates: HUVECs tube formation, 0.00 µM = 100.00, read-out: huvec.ttl.18hr.
Where [10] appears, read: endothelial cells (endo), tube formation mtl, 18 hr, read-out: POD endo.mtl.18hr.
[11] abbreviates: endothelial cells (endo), tube formation tlps, 18 hr, read-out: POD endo.tlps.18hr.
Where [12] appears, read: endothelial cells (endo), tube formation tta, 18 hr, read-out: POD endo.tta.18hr.
[13] abbreviates: endothelial cells (endo), tube formation ttl, 18 hr, read-out: POD endo.ttl.18hr.
[14] abbreviates: tube formation mtl, read-out: POD huvec.mtl.18hr.
[15] abbreviates: tube formation tlps, read-out: POD huvec.tlps.18hr.
[16] abbreviates: tube formation tta, read-out: POD huvec.tta.18hr.
Where [17] appears, read: tube formation ttl, read-out: POD huvec.ttl.18hr.

For the molecule `COc1cc(Cl)c(-c2cc(Cl)ccc2Cl)cc1Cl` [4-OMe PCB52], the activity at 0.01 µM in test [1] (setting [2]) is 120%; in test [1] (setting [3]), 104%; in test [1] (setting [4]), 141%; in test [1] (setting [5]), 150%; in the test on HUVECs (setting [6]), 105%; in the test with HUVECs (setting [7]) it was 93.8%. In addition, the activity at 0.01 µM was 98.5% in the test with HUVECs (setting [8]) and 87.4% in the test on HUVECs (setting [9]). The activity at 0.1 µM in test [1] (setting [2]) came to 112%; in test [1] (setting [3]), 113%; in test [1] (setting [4]), 116%; in test [1] (setting [5]), 123%; in the test with HUVECs (setting [6]), 95.6%; with HUVECs (setting [7]), 86.8%. The activity at 0.1 µM in the test on HUVECs (setting [8]) amounted to 80.4%; with HUVECs (setting [9]) it was 70.5%. Further, the activity at 1 µM in test [1] (setting [2]) was 119%; in test [1] (setting [3]) it was 114%; in test [1] (setting [4]) it was 121%; in test [1] (setting [5]) it was 132%; in the test with HUVECs (setting [6]), 109%; in the test with HUVECs (setting [7]), 140%. The activity at 1 µM in the test with HUVECs (setting [8]) was 102%; with HUVECs (setting [9]), 93.9%. The activity at 10 µM in test [1] (setting [2]) came to 114%; in test [1] (setting [3]) it was 131%; in test [1] (setting [4]), 136%; in test [1] (setting [5]), 142%; in the test with HUVECs (setting [6]), 94.7%; in the test with HUVECs (setting [7]), 81.4%. Also, the activity at 10 µM with HUVECs (setting [8]) is 92.9%; in the test on HUVECs (setting [9]) it was 84.8%. Moreover, the activity at 100 µM turned out to be 49.4% in test [1] (setting [2]); 15.9% in test [1] (setting [3]); 6.4% in test [1] (setting [4]); 8.34% in test [1] (setting [5]); 59.2% with HUVECs (setting [6]); 42.6% with HUVECs (setting [7]). The activity at 100 µM was 75.1% with HUVECs (setting [8]) and 67.4% with HUVECs (setting [9]). The minimal effective concentration was found to be 52 µM in test [1] (iPSC-EC, 100.00 = highest concentration tested, read-out: endo.mtl.18hr POD); 56 µM in test [1] (iPSC-EC, 100.00 = highest concentration tested, read-out: endo.tlps.18hr POD); 51.6 µM in test [1] (iPSC-EC, 100.00 = highest concentration tested, read-out: endo.tta.18hr POD); 54.7 µM in test [1] (iPSC-EC, 100.00 = highest concentration tested, read-out: endo.ttl.18hr POD); 17.1 µM in the test on HUVECs (HUVECs tube formation, MAX 100.00, read-out: huvec.mtl.18hr POD); 14.2 µM with HUVECs (HUVECs tube formation, MAX 100.00, read-out: huvec.tlps.18hr POD). Further, the minimal effective concentration in the test on HUVECs (HUVECs tube formation, MAX 100.00, read-out: huvec.tta.18hr POD) was found to be 100 µM; in the test with HUVECs (HUVECs tube formation, MAX 100.00, read-out: huvec.ttl.18hr POD), 100 µM.

For `COc1ccc(-c2cccc(Cl)c2)cc1Cl` [4-OMe-PCB 11, 4-methoxy-3,3′-dichlorobiphenyl], the minimal effective concentration in test [1] (setting [10]) is 100 µM; in test [1] (setting [11]), 28.4 µM; in test [1] (setting [12]) it was 0.00169 µM; in test [1] (setting [13]), 0.00197 µM; in the test with HUVECs (setting [14]) it was 9.33 µM; in the test with HUVECs (setting [15]) it was 25.8 µM. In addition, the figures for the minimal effective concentration with HUVECs (setting [16]) and in the test on HUVECs (setting [17]) were 100 µM and 1.22 µM, respectively.

Consider `COc1cc(Cl)c(-c2cc(Cl)ccc2Cl)cc1Cl` [4-OMe-PCB 52, 4-methoxy-2,2′,5,5′-tetrachlorobiphenyl], for which the minimal effective concentration in test [1] (setting [10]) worked out at 52 µM; in test [1] (setting [11]), 56 µM; in test [1] (setting [12]), 51.6 µM; in test [1] (setting [13]), 54.7 µM; with HUVECs (setting [14]), 17.1 µM; in the test on HUVECs (setting [15]), 14.2 µM. For the same molecule, the minimal effective concentration in the test with HUVECs (setting [16]) and with HUVECs (setting [17]) was 100 µM in each case.

As to `O=S(=O)(O)Oc1ccc(-c2cccc(Cl)c2)cc1Cl` [4-PCB 11 sulfate], the minimal effective concentration in test [1] (setting [10]) was found to be 25.3 µM; in test [1] (setting [11]), 12.7 µM; in test [1] (setting [12]) it was 21 µM; in test [1] (setting [13]), 25.6 µM; in the test with HUVECs (setting [14]), 14.3 µM; in the test on HUVECs (setting [15]), 27.2 µM. Besides, the minimal effective concentration in the test with HUVECs (setting [16]) and with HUVECs (setting [17]) was 100 µM in each case.

For the molecule `O=S(=O)(O)Oc1cc(Cl)c(-c2cc(Cl)ccc2Cl)cc1Cl` [4-PCB 52 sulfate], the minimal effective concentration in test [1] (setting [10]) was 7.44 µM; in test [1] (setting [11]) it was 5.74 µM; in test [1] (setting [12]), 8.83 µM; in test [1] (setting [13]) it was 9.64 µM; in the test on HUVECs (setting [14]) it was 14.6 µM; with HUVECs (setting [15]), 10.1 µM. Further, the minimal effective concentration in the test on HUVECs (setting [16]) and in the test on HUVECs (setting [17]) was 100 µM each time.
